Series [1] relates to 17 HPV-negative HNSCC and cervical squamous cancer cell lines. In words: High-throughput drug screen (HTDS), cell death by AOC_LD, HPV-negative cell lines. The format is cell-based.
Series [2] has as its system 2 HPV-positive cell lines with TRIP13 overexpression. Nature of the series: Apoptosis with TRIP13 overexpression, HPV-positive cells. It is filed as cell-based. The note with it: 300 nmol/L, 24 or 32 hours. Here is the method: FIG. 5A, two HPV-positive cell lines (CASKI and SIHA) were transfected with BUB1B or MAD2L1 siRNA and then treated for 24 hours with 300 nmol/L alisertib before lysis and immunoblotting with the indicated antibodies. FIG. 5B, TRIP13 was transiently overexpressed (Ox) in 2 HPV-positive cell lines that were treated for 24 hours with 300 nmol/L alisertib before lysis and immunoblotting for the indicated proteins. FIG. 5C, HPV-positive cell lines with TRIP13 overexpression were treated with 300 nmol/L alisertib for 32 hours and then stained for annexin V-PE/7AAD staining and analysis with flow cytometry to measure apoptosis. The bar graph represents the ratio of apoptosis (late plus early) among different groups. Values are the means±the standard deviations for 3 independent experiments. ** P≤0.01; *** P≤0.001; unpaired, 2-tailed Student t-test. FIG. 5D, HN31 (left panel) and MDA886LN (right panel) cells expressing RB1 or control shRNA were transfected with a plasmid for TRIP13. After 24 hours, cells were treated with 300 nmol/L alisertib and then lysed for immunoblotting. Cl, cleaved; Fl, full length; GAPDH, glyceraldehyde 3-phosphate dehydrogenase.
In normal cells, prolonged mitosis resulting from Mad2 overexpression can lead to G1 arrest or mitotic cell death, so it is unclear why Mad2 overexpression is tolerated in HPV-positive cancers. […]

For series [3] the following is noted: human clinical trials; cited from earlier work.
Series [4] has as its system 16 HPV-positive HNSCC and cervical squamous cancer cell lines. In words: High-throughput drug screen (HTDS), cell death by AOC_LD, HPV-positive cell lines. It is filed as cell-based.
Series [5] relates to HN31 cells stably transfected with an E7 plasmid. In words: Apoptosis in HPV-negative cells overexpressing E7. It is filed as cell-based. The conditions noted are these: 300 nmol/L, 24 hours. Here is the method:
Each data point represents 1 cell line. Box plots show the median pRb […] levels and 95% confidence intervals across all cell lines in the category. t-test P=0.0097. FIG. 4B, HPV-negative HNSCC cells (HN31, UMSCC4, and MDA886LN) were infected with distinct, lentivirus-based shRNAs (Sh2, Sh4, and Sh6) to stably knock down the expression of RB1 or were treated with control (Ctrl) shRNA. Cells were then treated with 300 nmol/L alisertib for 24 hours before annexin V-PE/7AAD staining and analysis with flow cytometry. The bar graph represents the ratio of apoptosis (late plus early) among different groups. Values are the means±the standard deviations for 3 independent experiments. *P<0.05; **P<0.005; unpaired, 2-tailed Student t-test. FIG. 4C, cells from FIG. 4B were treated with 300 nmol/L alisertib for 24 hours before lysis and immunoblotting with the indicated antibodies. FIG. 4D-E, HN31 cells were stably transfected with an E7 plasmid and treated with 300 nmol/L alisertib for 24 hours before lysis and immunoblotting with (FIG. 4D) the indicated antibodies or (FIG. 4E) annexin-PE staining to measure apoptosis. Values are the means±the standard deviations for 3 independent experiments. ** P≤0.01; *** P≤0.001. FIG. 4F, two HPV-positive cell lines were transfected with 10 nmol/L siRNA oligonucleotides specific to E7 or with control oligonucleotides. […]

The test system of series [6] is HPV-negative cell lines. Nature of the series: Rb family protein and cleaved caspase-3 levels in HPV-negative cells. It is filed as cell-based. The text has this: The effect of RB1 silencing on the expression of other RB family members (RBL1, RBL2) was also examined. It was observed that the levels of RBL1 remained unchanged with the treatment. However, the protein levels of RBL2 decreased with RB1 silencing as well as with alisertib treatment. The effect of RB1 silencing on RBL2 was likely due to pooled siRNAs. Using RB1 shRNA, an effect of RB1 depletion on RBL2 was not observed, but the enhanced alisertib-induced apoptosis was observed, supporting a role for RB1 alone in this effect.
A decrease of Rb protein expression following Aurora kinase inhibition was noted, that may be related to G2/M cell cycle arrest. Alternatively, it may be that the HPV negative cells with low Rb expression are the ones that survive after Aurora inhibition. To test this at the single cell level, two HPV-negative cell lines were co-stained with anti-Rb labelled with FITC conjugate and anti-cleaved caspase-3 labelled with TRITC and treated with alisertib or vehicle control. As expected in these unsynchronized cells, Rb expression was detectable, but modestly heterogeneous in control cells. […] Consistent with prior data, cells with higher Rb levels have no or very low levels of cleaved caspase-3. Cells with lower Rb levels have modest levels of cleaved caspase-3.

The mark [7] stands for this setting: sensitive = AOC_LD greater than 0.
Setting [8] is: two HPV-negative cell lines, vs control cells.

With `COc1cc(Nc2ncc3c(n2)-c2ccc(Cl)cc2C(c2c(F)cccc2OC)=NC3)ccc1C(=O)O` [ALISERTIB, alisertib], the “HPV negative Resistant (number of cell lines)” value in series [1] (resistant = AOC_LD 0) worked out at 16. In addition, the “HPV negative Sensitive (number of cell lines)” value in series [1] (setting [7]) is 1. In addition, the “apoptosis with TRIP13 overexpression (PARP and caspase-3 cleavage, annexin V)” value in series [2] is “partial rescue”. The common toxicities entry in series [3] is “anemia, thrombocytopenia, and neutropenia”. For the same compound, the “HPV positive Resistant (number of cell lines)” value in series [4] (resistant = AOC_LD 0) came out at 6. Moreover, in series [4] (setting [7]), the “HPV positive Sensitive (number of cell lines)” value amounted to 10. In series [5], the “apoptosis (cleaved caspase-3, PARP, annexin V)” value is recorded as “selectively enhanced apoptosis”. Further, the “protein levels of RBL2” value in series [6] was “decreased”. In addition, in series [6] (setting [8]), the “Rb expression (single cell staining)” value was “notably lower” and the “cleaved caspase 3 (single cell staining)” value is reported as “slightly higher”.

Values taken from patent US20260258420A1, “COMPOSITIONS AND METHODS FOR THE TREATMENT OF HUMAN PAPILLOMAVIRUS-DRIVEN CANCERS” (priority 2023, published 2026).
